# Measured values published in ChEMBL document CHEMBL1141883 (J Med Chem, 2005).
# pIC50: −log10 of the molar value.
# How the values were obtained:
# [1] = target: Cyclin-dependent kinase 1/cyclin B (Homo sapiens, UniProt P06493); assay: Inhibition of cyclin-dependent kinase 1/cyclinB; assay type: protein-complex assay
# [2] = target: Glycogen synthase kinase-3 (Homo sapiens, UniProt P49840+P49841); assay: Inhibition of glycogen synthase kinase 3; assay type: protein assay
# [3] = target: Cyclin-dependent kinase 5/CDK5 activator 1 (Homo sapiens, UniProt Q00535); assay: Inhibition of Cyclin-dependent kinase 5-p25nck5a; assay type: protein-complex assay
# Cyclin-dependent kinase 5/CDK5 activator 1, sequence (Q00535 whole entry): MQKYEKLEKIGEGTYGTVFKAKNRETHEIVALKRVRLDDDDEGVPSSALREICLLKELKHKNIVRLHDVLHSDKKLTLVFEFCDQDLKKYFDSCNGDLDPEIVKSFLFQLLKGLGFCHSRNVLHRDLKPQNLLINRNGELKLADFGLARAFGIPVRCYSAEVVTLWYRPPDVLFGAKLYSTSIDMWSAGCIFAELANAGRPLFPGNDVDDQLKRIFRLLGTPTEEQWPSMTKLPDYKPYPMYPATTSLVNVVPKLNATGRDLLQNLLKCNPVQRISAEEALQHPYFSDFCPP
# Cyclin-dependent kinase 5/CDK5 activator 1, sequence (Q15078 whole entry, further chain): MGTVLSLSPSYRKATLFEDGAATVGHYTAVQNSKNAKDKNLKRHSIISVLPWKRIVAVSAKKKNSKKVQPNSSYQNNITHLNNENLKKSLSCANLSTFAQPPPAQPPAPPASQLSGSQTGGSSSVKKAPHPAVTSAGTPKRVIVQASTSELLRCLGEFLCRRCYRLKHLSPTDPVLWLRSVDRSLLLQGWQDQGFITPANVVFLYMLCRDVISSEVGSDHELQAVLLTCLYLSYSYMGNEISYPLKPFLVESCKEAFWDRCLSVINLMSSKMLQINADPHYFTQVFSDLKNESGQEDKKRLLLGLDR
# [4] = target: Cyclin-dependent kinase 6 (Homo sapiens, UniProt Q00534); assay: Inhibition of human cyclin-dependent kinase 6 complex with a virus-encoded cyclin from herpesvirus saimiri (Vcyclin)
# Cyclin-dependent kinase 6, sequence (Q00534 whole entry): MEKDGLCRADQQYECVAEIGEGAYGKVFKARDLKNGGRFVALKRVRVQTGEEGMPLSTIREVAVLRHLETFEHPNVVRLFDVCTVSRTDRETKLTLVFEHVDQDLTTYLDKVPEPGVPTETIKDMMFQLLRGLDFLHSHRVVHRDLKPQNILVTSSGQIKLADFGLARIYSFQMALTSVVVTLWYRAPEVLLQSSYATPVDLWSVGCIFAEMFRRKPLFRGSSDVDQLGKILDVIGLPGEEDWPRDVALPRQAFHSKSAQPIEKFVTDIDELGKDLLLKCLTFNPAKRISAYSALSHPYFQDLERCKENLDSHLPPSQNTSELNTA
Compound,pIC50 [1],IC50 [2] [µM],pIC50 [3],pIC50 [4]
O=c1c(O)c(-c2ccc(O)c(O)c2)oc2cc(O)ccc12 [FISETIN],6.10,0.42,6.24,–
O=c1c(O)c(-c2ccc(O)c(O)c2)oc2cc(O)cc(O)c12 [QUERCETIN],4.12,2.1,–,4.60
O=c1cc(-c2ccc(O)cc2)oc2cc(O)cc(O)c12 [APIGENIN],5.40,1.4,5.80,5.77
O=c1cc(-c2ccccc2)oc2cc(O)cc(O)c12 [CHRYSIN],5.15,7.2,5.51,5.22
O=c1c(O)c(-c2ccc(O)cc2)oc2cc(O)cc(O)c12 [KAEMPFEROL],4.39,3.5,4.29,4.66
O=c1cc(-c2ccc(O)c(O)c2)oc2cc(O)cc(O)c12 [LUTEOLIN],–,0.8,5.42,< 3.52
